How the values were obtained:
[1] = target: T1, human Cereblon WT GST-tagged protein (Homo sapiens, UniProt Q96SW2); assay: CRBN-binding affinity, HTRF (CEREBLON BINDING kit); conditions: displacement of Thalidomide-Re reagent, 3 hours at room temperature
T1 construct: purchased CISBIO 64BDCRBNPEH
Protocol: The CEREBLON BINDING kits (specification: 10,000 tests; product number: Catalog #64BDCRBNPEH; CISBIO company) was used to determine the CRBN binding ability of the compounds to be tested through a HTRF method (homogeneous time-resolved fluorescence). The specific methods are as follows: • 1. […] Then, 2.5 μL of human Cereblon WT GST-tagged protein solution was added to each well. Finally, 5 μL of the thoroughly mixed Thalidomide-Re reagent and GST Eu antibody working solution were added to each of the aforementioned wells. […] The blank control wells were sequentially added with 2.5 μL of diluent #9 (1×) solution, 2.5 μL of PROTAC binding buffer, and 5 μL of thoroughly mixed Thalidomide-Re reagent and GST Eu antibody working solution. • 4.
OD 620 nmcompound is the absorbance value of each well of the compounds to be tested of the present disclosure at an emission wavelength of 620 nm. […] OD 620 nmcontrol is the absorbance value of the blank control well at an emission wavelength of 620 nm. […] OD 620 nmStd0 is the absorbance value of the solvent control well at an emission wavelength of 620 nm.

[2] = target: T2, Wee1 (Homo sapiens, UniProt P30291+Q96SW2); assay: Western-blot assay, substrate protein in hPBMCs; assay type: cell-based; conditions: hPBMC cells, 24 hours, tested at 50 nM and 500 nM, table does not say which
T2 construct: endogenous in cells; host or cells: human PBMCs (Milecell Biotechnologies)
T2 sequence (P30291 whole entry): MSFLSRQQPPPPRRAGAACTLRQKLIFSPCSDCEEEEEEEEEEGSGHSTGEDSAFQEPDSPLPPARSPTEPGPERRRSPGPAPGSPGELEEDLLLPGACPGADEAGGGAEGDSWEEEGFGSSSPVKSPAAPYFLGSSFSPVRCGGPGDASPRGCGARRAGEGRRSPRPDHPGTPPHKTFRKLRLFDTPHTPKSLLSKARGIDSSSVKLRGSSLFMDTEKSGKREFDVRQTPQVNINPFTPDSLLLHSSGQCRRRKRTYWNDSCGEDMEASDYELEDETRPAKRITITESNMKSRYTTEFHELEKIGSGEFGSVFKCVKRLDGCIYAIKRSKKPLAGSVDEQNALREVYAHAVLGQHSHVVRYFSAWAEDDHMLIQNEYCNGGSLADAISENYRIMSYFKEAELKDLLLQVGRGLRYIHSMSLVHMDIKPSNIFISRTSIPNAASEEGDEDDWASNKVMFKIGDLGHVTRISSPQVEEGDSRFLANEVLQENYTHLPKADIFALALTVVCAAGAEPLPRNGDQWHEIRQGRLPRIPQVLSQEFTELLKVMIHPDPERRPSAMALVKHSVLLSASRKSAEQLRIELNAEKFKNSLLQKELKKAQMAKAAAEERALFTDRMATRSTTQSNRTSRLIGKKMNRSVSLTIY
T2 sequence (Q96SW2 whole entry): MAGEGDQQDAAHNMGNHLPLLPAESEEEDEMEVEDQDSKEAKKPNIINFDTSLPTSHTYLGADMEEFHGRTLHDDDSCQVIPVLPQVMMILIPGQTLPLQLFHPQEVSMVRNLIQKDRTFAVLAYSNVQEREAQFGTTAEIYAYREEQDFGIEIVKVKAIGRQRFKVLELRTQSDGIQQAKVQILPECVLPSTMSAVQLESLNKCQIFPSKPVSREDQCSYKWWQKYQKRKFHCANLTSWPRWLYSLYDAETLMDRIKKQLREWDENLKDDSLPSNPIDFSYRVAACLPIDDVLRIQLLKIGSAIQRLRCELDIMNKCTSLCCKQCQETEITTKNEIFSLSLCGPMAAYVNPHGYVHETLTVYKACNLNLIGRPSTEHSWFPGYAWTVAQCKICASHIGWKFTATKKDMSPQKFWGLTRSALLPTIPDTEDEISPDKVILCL
T2 sequence (Q16531 whole entry partner): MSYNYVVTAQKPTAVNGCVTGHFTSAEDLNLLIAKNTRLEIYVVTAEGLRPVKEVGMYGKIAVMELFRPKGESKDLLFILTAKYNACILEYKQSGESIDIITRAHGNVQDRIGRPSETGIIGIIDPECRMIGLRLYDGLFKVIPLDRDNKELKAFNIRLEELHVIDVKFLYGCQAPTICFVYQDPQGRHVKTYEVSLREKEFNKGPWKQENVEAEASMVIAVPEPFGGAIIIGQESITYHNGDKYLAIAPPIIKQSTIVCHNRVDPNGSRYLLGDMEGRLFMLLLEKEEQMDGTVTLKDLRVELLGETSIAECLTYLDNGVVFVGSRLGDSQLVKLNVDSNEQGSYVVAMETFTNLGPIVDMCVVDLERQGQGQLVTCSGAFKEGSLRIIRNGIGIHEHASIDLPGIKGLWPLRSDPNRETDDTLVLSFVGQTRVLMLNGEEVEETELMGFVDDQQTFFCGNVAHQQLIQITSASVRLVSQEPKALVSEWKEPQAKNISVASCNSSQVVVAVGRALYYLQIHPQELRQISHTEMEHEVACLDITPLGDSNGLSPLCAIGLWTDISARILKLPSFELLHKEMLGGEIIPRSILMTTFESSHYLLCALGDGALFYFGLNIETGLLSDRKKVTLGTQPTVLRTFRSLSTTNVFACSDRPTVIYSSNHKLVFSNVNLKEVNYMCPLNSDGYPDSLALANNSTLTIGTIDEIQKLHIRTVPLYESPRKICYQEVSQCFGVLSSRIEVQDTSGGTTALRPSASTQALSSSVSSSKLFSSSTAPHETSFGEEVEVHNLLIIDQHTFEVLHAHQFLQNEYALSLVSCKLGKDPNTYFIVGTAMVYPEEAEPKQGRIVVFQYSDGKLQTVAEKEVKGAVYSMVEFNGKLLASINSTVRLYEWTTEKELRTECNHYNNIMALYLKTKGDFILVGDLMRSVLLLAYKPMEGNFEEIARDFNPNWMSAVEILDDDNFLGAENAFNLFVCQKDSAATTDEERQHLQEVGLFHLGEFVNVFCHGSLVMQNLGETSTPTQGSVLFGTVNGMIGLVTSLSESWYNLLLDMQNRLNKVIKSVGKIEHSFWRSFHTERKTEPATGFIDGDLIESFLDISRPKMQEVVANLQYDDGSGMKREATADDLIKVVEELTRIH
Protocol: (§1) The effect of the compounds of the present disclosure on the expression of target proteins in cells was detected using conventional Western blot analysis.
(§2) Human peripheral blood mononuclear cells (hPBMCs) at a density of 1×10^6 cells/mL were thawed according to the PBMC Recovery Protocol (Milecell Biotechnologies Inc, Shanghai).
(§3) After 24 hours of compounds treatment, cells were harvested and lysed in RIPA protein lysate containing phosphatase inhibitors on ice for 30-60 min, followed by centrifugation. The supernatant was aspirated as the extracted total cell protein. The protein concentration of the supernatant was determined using the conventional BCA (Bicinchoninic Acid) assay. The supernatant was then mixed with 4× SDS sample loading buffer, denatured at 95° C. for 5 minutes, and then subjected to SDS-PAGE electrophoresis on a polyacrylamide gel. Proteins were then transferred to a nitrocellulose (NC) membrane, blocked at room temperature for 1-2 h, and processed for antibody incubation and detection according to the manufacturer's instructions (Cell Signaling Technology).
(§4) Half-Maximal Degradation Concentration value (the drug concentration required for degrading proteins by 50%, abbreviated as DC50) reads method: comparing the grayscale values of Western blot bands from drug-treated samples with those from blank DMSO-treated controls, and identifying the drug concentration range at which the grayscale value is half that of the DMSO-treated control bands.
(§5) DC50 values can be calculated using ImageJ software to measure grayscale values of Western blot bands from drug-treated samples. The concentration-response curve is fitted to estimate the drug concentration corresponding to half the grayscale value.
(§6) Target protein remaining (%) refers to the percentage of target protein remaining in hPBMC cells after treatment with protein degrader compounds.
(§7) Calculation method for protein remaining (%): Use ImageJ software to measure grayscale values of Western blot bands from drug (protein degrader)-treated samples. The grayscale value of drug-treated bands is divided by that of internal control protein bands, and the resulting quotient is normalized to obtain the relative percentage of remaining target protein after protein degrader treatment.
(§8) Target protein degradation rate (%)=100%−target protein remaining (%).

[3] = target: T3, IKZF2 (Homo sapiens, UniProt Q96SW2+Q9UKS7); assay: Western-blot assay, substrate protein in hPBMCs; assay type: cell-based; conditions: hPBMC cells, 24 hours, tested at 50 nM and 500 nM, table does not say which
T3 construct: endogenous in cells; host or cells: human PBMCs (Milecell Biotechnologies)
T3 sequence (Q9UKS7 whole entry): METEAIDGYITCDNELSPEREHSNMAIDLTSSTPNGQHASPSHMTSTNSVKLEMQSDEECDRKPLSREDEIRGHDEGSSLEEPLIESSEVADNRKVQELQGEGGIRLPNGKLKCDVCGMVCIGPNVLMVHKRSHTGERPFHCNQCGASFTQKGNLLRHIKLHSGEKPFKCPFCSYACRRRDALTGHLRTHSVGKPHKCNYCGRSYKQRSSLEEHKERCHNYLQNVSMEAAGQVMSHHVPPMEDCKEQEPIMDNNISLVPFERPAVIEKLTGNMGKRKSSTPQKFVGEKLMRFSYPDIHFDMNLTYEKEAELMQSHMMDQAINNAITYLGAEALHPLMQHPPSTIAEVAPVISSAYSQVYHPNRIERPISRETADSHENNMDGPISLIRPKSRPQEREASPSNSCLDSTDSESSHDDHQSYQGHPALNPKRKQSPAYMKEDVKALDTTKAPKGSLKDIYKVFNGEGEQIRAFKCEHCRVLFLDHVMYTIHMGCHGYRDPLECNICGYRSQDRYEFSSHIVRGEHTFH
T3 sequence (Q96SW2 whole entry): as the sequence (Q96SW2 whole entry) above
T3 sequence (Q16531 whole entry partner): as the sequence (Q16531 whole entry partner) above
Protocol: as §1, §2, §3, §4, §5, §6, §7, §8

[4] = target: T4, CK1α (Homo sapiens, UniProt P48729+Q96SW2); assay: Western-blot assay, substrate protein in hPBMCs; assay type: cell-based; conditions: hPBMC cells, 24 hours, tested at 50 nM and 500 nM, table does not say which
T4 construct: endogenous in cells; host or cells: human PBMCs (Milecell Biotechnologies)
T4 sequence (P48729 whole entry): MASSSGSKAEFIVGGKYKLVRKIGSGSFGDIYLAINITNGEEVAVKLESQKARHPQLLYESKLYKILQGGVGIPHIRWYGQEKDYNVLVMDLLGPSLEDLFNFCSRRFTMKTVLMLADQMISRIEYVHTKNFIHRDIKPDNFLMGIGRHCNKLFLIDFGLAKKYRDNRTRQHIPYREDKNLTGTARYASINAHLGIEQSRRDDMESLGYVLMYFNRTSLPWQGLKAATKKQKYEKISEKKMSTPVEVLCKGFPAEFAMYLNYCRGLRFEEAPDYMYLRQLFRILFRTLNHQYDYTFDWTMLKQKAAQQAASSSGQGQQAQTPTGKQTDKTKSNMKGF
T4 sequence (Q96SW2 whole entry): as the sequence (Q96SW2 whole entry) above
T4 sequence (Q16531 whole entry partner): as the sequence (Q16531 whole entry partner) above
Protocol: as §1, §2, §3, §4, §5, §6, §7, §8

[5] = target: T5, GSPT1 (Homo sapiens, UniProt P15170+Q96SW2); assay: Western-blot assay, substrate protein in hPBMCs; assay type: cell-based; conditions: hPBMC cells, 24 hours, tested at 50 nM and 500 nM, table does not say which
T5 construct: endogenous in cells; host or cells: human PBMCs (Milecell Biotechnologies)
T5 sequence (P15170 whole entry): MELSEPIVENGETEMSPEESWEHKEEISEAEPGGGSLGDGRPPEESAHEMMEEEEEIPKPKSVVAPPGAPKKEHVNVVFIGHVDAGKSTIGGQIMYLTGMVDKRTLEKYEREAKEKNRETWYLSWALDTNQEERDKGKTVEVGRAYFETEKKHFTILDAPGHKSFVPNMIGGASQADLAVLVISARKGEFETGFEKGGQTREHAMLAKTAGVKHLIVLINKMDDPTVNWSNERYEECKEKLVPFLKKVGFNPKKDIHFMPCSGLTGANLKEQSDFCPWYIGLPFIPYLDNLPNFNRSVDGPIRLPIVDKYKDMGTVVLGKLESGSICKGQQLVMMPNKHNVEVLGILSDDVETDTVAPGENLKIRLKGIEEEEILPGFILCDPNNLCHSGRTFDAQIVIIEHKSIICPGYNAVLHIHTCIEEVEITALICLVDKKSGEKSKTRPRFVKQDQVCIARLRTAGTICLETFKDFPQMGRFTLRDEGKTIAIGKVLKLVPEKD
T5 sequence (Q96SW2 whole entry): as the sequence (Q96SW2 whole entry) above
T5 sequence (Q16531 whole entry partner): as the sequence (Q16531 whole entry partner) above
Protocol: as §1, §2, §3, §4, §5, §6, §7, §8

T1 sequence (Q96SW2 whole entry): as the sequence (Q96SW2 whole entry) above

Structure (SMILES): CC1(C)CCC(C(=O)N2CCC(Oc3ccc4c(c3)CN(C3CCC(=O)NC3=O)C4=O)CC2)=C(c2ccc(Cl)cc2)C1 (centres unmarked) [GT-06192, 3-(5-((1-(4′-chloro-5,5-dimethyl-3,4,5,6-tetrahydro-[1,1′-biphenyl]-2-carbonyl)piperidin-4-yl)oxy)-1-oxoisoindolin-2-yl)piperidine-2,6-dione]
- IC50 [1]: 500 to 1000 nM
- substrate protein remaining % [2]: A (0%≤ substrate protein remaining % ≤80%)
- substrate protein remaining % [3]: A (0%≤ substrate protein remaining % ≤80%)

Structure (SMILES): CC1(C)CCC(C(=O)N2C[C@H]3CC(Oc4ccc5c(c4)CN(C4CCC(=O)NC4=O)C5=O)C[C@@H]3C2)=C(c2ccc(Cl)cc2)C1 (stereo partly drawn) [GT-07025, 3-(5-(((3aS,6aS)-2-(4′-chloro-5,5-dimethyl-3,4,5,6-tetrahydro-[1,1′-biphenyl]-2-carbonyl)octahydro-cyclopenta[c]pyrrol-5-yl)oxy)-1-oxoisoindolin-2-yl)piperidine-2,6-dione]
- IC50 [1]: < 500 nM
- substrate protein remaining % [3]: A (0%≤ substrate protein remaining % ≤80%)
- substrate protein remaining % [4]: A (0%≤ substrate protein remaining % ≤80%)

Structure (SMILES): CC1(C)CCC(C(=O)N2CCCC(Sc3ccc4c(c3)CN(C3CCC(=O)NC3=O)C4=O)CC2)=C(c2ccc(Cl)cc2)C1 (centres unmarked) [GT-06642, 3-(5-((1-(4′-chloro-5,5-dimethyl-3,4,5,6-tetrahydro-[1,1′-biphenyl]-2-carbonyl)azepan-4-yl)thio)-1-oxoisoindolin-2-yl)piperidine-2,6-dione]
- IC50 [1]: 1000 to 1900 nM
- substrate protein remaining % [3]: A (0%≤ substrate protein remaining % ≤80%)
- substrate protein remaining % [5]: A (0%≤ substrate protein remaining % ≤80%)

Structure (SMILES): CC1(C)CCC(CN2CC3CC(Sc4ccc5c(c4)CN(C4CCC(=O)NC4=O)C5=O)CC3C2)=C(c2ccc(Cl)cc2)C1 (centres unmarked) [GT-06813, 3-(5-((2-((4′-chloro-5,5-dimethyl-3,4,5,6-tetrahydro-[1,1′-biphenyl]-2-yl)methyl)octahydro-cyclopenta[c]pyrrol-5-yl)thio)-1-oxoisoindolin-2-yl)piperidine-2,6-dione]
- IC50 [1]: 1000 to 1900 nM
- substrate protein remaining % [2]: A (0%≤ substrate protein remaining % ≤80%)
- substrate protein remaining % [3]: A (0%≤ substrate protein remaining % ≤80%)
- substrate protein remaining % [5]: A (0%≤ substrate protein remaining % ≤80%)

Structure (SMILES): O=C1CCC(N2Cc3cc(SC4CC5(CCNCC5)C4)ccc3C2=O)C(=O)N1 (centres unmarked) [GT-06997, 3-(5-((7-azaspiro[3.5]nonan-2-yl)thio)-1-oxoisoindolin-2-yl)piperidine-2,6-dione]
- IC50 [1]: 500 to 1000 nM
- substrate protein remaining % [3]: A (0%≤ substrate protein remaining % ≤80%)
- substrate protein remaining % [5]: A (0%≤ substrate protein remaining % ≤80%)

Structure (SMILES): O=C1CCC(N2Cc3cc(OC4CN(C(c5ccccc5F)c5ccccc5F)C4)ccc3C2=O)C(=O)N1 (centres unmarked) [GT-06759, 3-(5-((1-(bis(2-fluorophenyl)methyl)azetidin-3-yl)oxy)-1-oxoisoindolin-2-yl)piperidine-2,6-dione]
- IC50 [1]: < 500 nM
- substrate protein remaining % [3]: A (0%≤ substrate protein remaining % ≤80%)
- substrate protein remaining % [5]: A (0%≤ substrate protein remaining % ≤80%)

Structure (SMILES): O=C1CCC(N2Cc3cc(SC4CCN(C(c5ccccc5)c5ccccc5)C4)ccc3C2=O)C(=O)N1 (centres unmarked) [GT-06196, 3-(5-((1-benzhydrylpyrrolidin-3-yl)thio)-1-oxoisoindolin-2-yl)piperidine-2,6-dione]
- IC50 [1]: 500 to 1000 nM
- substrate protein remaining % [3]: A (0%≤ substrate protein remaining % ≤80%)
- substrate protein remaining % [5]: A (0%≤ substrate protein remaining % ≤80%)
- substrate protein remaining % [4]: A (0%≤ substrate protein remaining % ≤80%)

Structure (SMILES): O=C1CCC(N2Cc3cc(SC4CCCN(Cc5ccccc5-c5ccc(Cl)cc5)CC4)ccc3C2=O)C(=O)N1 (centres unmarked) [GT-06643, 3-(5-((1-((4′-chloro-[1,1′-biphenyl]-2-yl)methyl)azepan-4-yl)thio)-1-oxoisoindolin-2-yl)piperidine-2,6-dione]
- IC50 [1]: 1000 to 1900 nM
- substrate protein remaining % [2]: A (0%≤ substrate protein remaining % ≤80%)
- substrate protein remaining % [3]: A (0%≤ substrate protein remaining % ≤80%)

Structure (SMILES): O=C1CCC(N2Cc3cc(SC4CN(C(c5ccccc5)c5ccccn5)C4)ccc3C2=O)C(=O)N1 (centres unmarked) [GT-06518, 3-(1-oxo-5-((1-(phenyl(pyridin-2-yl)methyl)azetidin-3-yl)thio)isoindolin-2-yl)piperidine-2,6-dione]
- IC50 [1]: < 500 nM
- substrate protein remaining % [3]: A (0%≤ substrate protein remaining % ≤80%)
- substrate protein remaining % [5]: A (0%≤ substrate protein remaining % ≤80%)
- substrate protein remaining % [4]: A (0%≤ substrate protein remaining % ≤80%)

Structure (SMILES): O=C1CCC(N2Cc3cc(OC4CCN(Cc5ccccc5-c5ccc(Cl)cc5)CC4)ccc3C2=O)C(=O)N1 (centres unmarked) [GT-06193, 3-(5-((1-((4′-chloro-[1,1′-biphenyl]-2-yl)methyl)piperidin-4-yl)oxy)-1-oxoisoindolin-2-yl)piperidine-2,6-dione]
- IC50 [1]: 1000 to 1900 nM
- substrate protein remaining % [2]: A (0%≤ substrate protein remaining % ≤80%)
- substrate protein remaining % [3]: A (0%≤ substrate protein remaining % ≤80%)
- substrate protein remaining % [5]: A (0%≤ substrate protein remaining % ≤80%)

Structure (SMILES): O=C1CCC(N2Cc3cc(SC4C[C@@H]5CN(C(=O)c6ccccc6-c6ccc(Cl)cc6)C[C@@H]5C4)ccc3C2=O)C(=O)N1 (stereo partly drawn) [GT-07024, 3-(5-(((3aR,6aS)-2-(4′-chloro-[1,1′-biphenyl]-2-carbonyl)octahydro-cyclopenta[c]pyrrol-5-yl)thio)-1-oxoisoindolin-2-yl)piperidine-2,6-dione]
- IC50 [1]: < 500 nM
- substrate protein remaining % [2]: A (0%≤ substrate protein remaining % ≤80%)
- substrate protein remaining % [3]: A (0%≤ substrate protein remaining % ≤80%)

Structure (SMILES): O=C1CCC(N2Cc3cc(SC4CC5CN(Cc6ccccc6-c6ccc(Cl)cc6)CC5C4)ccc3C2=O)C(=O)N1 (centres unmarked) [GT-06914, 3-(5-((2-((4′-chloro-[1,1′-biphenyl]-2-yl)methyl)octahydrocyclopenta[c]pyrrol-5-yl)thio)-1-oxoisoindolin-2-yl)piperidine-2,6-dione]
- IC50 [1]: 1000 to 1900 nM
- substrate protein remaining % [2]: A (0%≤ substrate protein remaining % ≤80%)
- substrate protein remaining % [3]: A (0%≤ substrate protein remaining % ≤80%)

Structure (SMILES): O=C1CCC(N2Cc3cc(SC4CN(CC5=C(c6ccc(F)cc6)CCCC5)C4)ccc3C2=O)C(=O)N1 (centres unmarked) [GT-06301, 3-(5-((1-((4′-fluoro-3,4,5,6-tetrahydro-[1,1′-biphenyl]-2-yl)methyl)azetidin-3-yl)thio)-1-oxoisoindolin-2-yl)piperidine-2,6-dione]
- IC50 [1]: < 500 nM
- substrate protein remaining % [2]: A (0%≤ substrate protein remaining % ≤80%)
- substrate protein remaining % [3]: A (0%≤ substrate protein remaining % ≤80%)
- substrate protein remaining % [5]: A (0%≤ substrate protein remaining % ≤80%)

Structure (SMILES): CC1(C)CC(c2ccc(Cl)cc2)=C(CN2CC(Oc3ccc4c(c3)CN(C3CCC(=O)NC3=O)C4=O)C2)CO1 (centres unmarked) [GT-06561, 3-(5-((1-((4-(4-chlorophenyl)-6,6-dimethyl-5,6-dihydro-2H-pyran-3-yl)methyl)azetidin-3-yl)oxy)-1-oxoisoindolin-2-yl)piperidine-2,6-dione]
- IC50 [1]: < 500 nM
- substrate protein remaining % [2]: A (0%≤ substrate protein remaining % ≤80%)
- substrate protein remaining % [3]: A (0%≤ substrate protein remaining % ≤80%)
